We go through nine compounds from PubChem BioAssay (NCI).

Some test systems named below: 786-0 renal; A498 renal; COLO 205 colon; NCI-H226 lung; NCI-H23 lung; OVCAR-5 ovarian; RPMI-8226 leukemia; SF-539 CNS; SK-OV-3 ovarian; UO-31 renal.
Test in all cases: NCI-60 cell line screen, 48 h

Structures are written as SMILES.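 Interpolation was linear, between the two tested concentrations surrounding the appropriate level; five concentrations were tested over 48 hours in 96-well plates. GI50 is the concentration that inhibits growth by half. At the TGI there is no net growth.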

Take `Cc1c2cnccc2c(C)c2c1c1cc(C#N)ccc1n2C`: the GI50 with 786-0 renal is 0.235 µM; in the experiment on A498 renal it was 0.11 µM; with COLO 205 colon it was 0.18 µM; in the experiment with NCI-H226 lung it was 0.112 µM; in the experiment with NCI-H23 lung, 0.172 µM; in the experiment with OVCAR-5 ovarian, 0.262 µM. In addition, the GI50 with RPMI-8226 leukemia is 0.202 µM; with SF-539 CNS, 0.254 µM; in the experiment with SK-OV-3 ovarian, 0.245 µM; with UO-31 renal, 0.137 µM. The TGI in the experiment on 786-0 renal was 1.3 µM; in the experiment with A498 renal it was 0.285 µM; with COLO 205 colon it was 1.08 µM; with NCI-H226 lung, 0.379 µM; with NCI-H23 lung, 0.649 µM; with OVCAR-5 ovarian it was 1.47 µM. The TGI with RPMI-8226 leukemia was 0.907 µM; in the experiment on SF-539 CNS, 1.14 µM; in the experiment with SK-OV-3 ovarian, 0.92 µM; with UO-31 renal, 0.869 µM.
Take `CCCN1C(=O)NC(=O)C(CC)(N2C(=O)c3c(F)c(F)c(F)c(F)c3C2=O)C1=O` (stereo not given): the GI50 in the experiment on 786-0 renal was 2.66 µM; with A498 renal, 3.93 µM; with COLO 205 colon, 1.74 µM; with NCI-H226 lung, 3.08 µM; in the experiment on NCI-H23 lung it was 2.17 µM; in the experiment on OVCAR-5 ovarian it was 2.04 µM. Besides, the GI50 is 0.596 µM in the experiment with RPMI-8226 leukemia, 1.92 µM with SF-539 CNS, 3.96 µM in the experiment with SK-OV-3 ovarian and 1.63 µM in the experiment on UO-31 renal. Further, the TGI is 7.75 µM in the experiment with 786-0 renal; 11.6 µM in the experiment with A498 renal; 3.29 µM in the experiment on COLO 205 colon; 12.1 µM in the experiment on NCI-H226 lung; 5.77 µM in the experiment on NCI-H23 lung; 4.11 µM in the experiment with OVCAR-5 ovarian. The TGI in the experiment with RPMI-8226 leukemia stood at 3.14 µM; with SF-539 CNS, 4.14 µM; in the experiment with SK-OV-3 ovarian it was 13.2 µM; in the experiment on UO-31 renal, 4.32 µM.
As to `N#CC(N)=Nc1ccccc1`, the TGI with 786-0 renal, in the experiment on A498 renal, with COLO 205 colon, in the experiment on NCI-H226 lung, in the experiment with NCI-H23 lung and in the experiment on OVCAR-5 ovarian was more than 100 µM in each case. In addition, the TGI with RPMI-8226 leukemia, in the experiment on SF-539 CNS, with SK-OV-3 ovarian and in the experiment with UO-31 renal was more than 100 µM each time.
`Cn1c(=O)nc2n(-c3ccc(O)cc3)c3ccccc3nc-2c1=O`: the TGI in the experiment on 786-0 renal, in the experiment with A498 renal, with COLO 205 colon, in the experiment with NCI-H226 lung, with NCI-H23 lung and in the experiment with OVCAR-5 ovarian was more than 100 µM throughout. Moreover, the TGI in the experiment with RPMI-8226 leukemia was more than 100 µM; in the experiment with SF-539 CNS it was 59.7 µM; in the experiment on SK-OV-3 ovarian it was more than 100 µM; in the experiment on UO-31 renal, more than 100 µM.
`O=C1CC(CC(=O)C2CCCCC2=O)C(=O)N1` (stereo not given): the TGI with 786-0 renal, with A498 renal, in the experiment on COLO 205 colon, with NCI-H226 lung, with NCI-H23 lung and in the experiment with OVCAR-5 ovarian was more than 100 µM each time. For the same compound, the TGI in the experiment with RPMI-8226 leukemia, with SF-539 CNS, in the experiment with SK-OV-3 ovarian and in the experiment on UO-31 renal was more than 100 µM in each case.
As for `c1ccc(-c2nc(-c3ccccn3)nc(-c3ccccn3)n2)nc1`, the GI50 in the experiment on 786-0 renal was 61.5 µM; in the experiment with A498 renal it was 86.9 µM; in the experiment on COLO 205 colon, 45.7 µM; in the experiment on NCI-H226 lung, 44.9 µM; in the experiment on NCI-H23 lung, 54.9 µM; in the experiment on OVCAR-5 ovarian, more than 100 µM. In addition, the GI50 is 18.3 µM in the experiment on RPMI-8226 leukemia, 40.3 µM in the experiment with SF-539 CNS, 54.2 µM with SK-OV-3 ovarian and 3.18 µM in the experiment with UO-31 renal. The TGI in the experiment with 786-0 renal, in the experiment on A498 renal, with COLO 205 colon, in the experiment with NCI-H226 lung, in the experiment with NCI-H23 lung and in the experiment on OVCAR-5 ovarian was more than 100 µM throughout. Further, the TGI in the experiment with RPMI-8226 leukemia, in the experiment on SF-539 CNS, in the experiment on SK-OV-3 ovarian and in the experiment on UO-31 renal was more than 100 µM in each case.
As to `IC[P+]1(c2ccccc2)CCCC1`, the TGI with 786-0 renal is more than 100 µM; in the experiment with A498 renal it was 88.6 µM; in the experiment on COLO 205 colon, 31 µM; in the experiment with NCI-H226 lung, 89 µM; in the experiment on NCI-H23 lung, more than 100 µM; with OVCAR-5 ovarian it was more than 100 µM. For the same compound, the TGI in the experiment on RPMI-8226 leukemia, in the experiment on SF-539 CNS, in the experiment on SK-OV-3 ovarian and with UO-31 renal was more than 100 µM throughout.
Take `N#CC(C#N)=C/C=C(\Cl)c1ccc(Cl)cc1`: the GI50 is 4.56 µM in the experiment on 786-0 renal; 20.5 µM in the experiment with A498 renal; 7.72 µM with COLO 205 colon; 7.69 µM in the experiment on NCI-H226 lung; 2.66 µM in the experiment on NCI-H23 lung; 8.78 µM in the experiment with OVCAR-5 ovarian. Moreover, the GI50 in the experiment on RPMI-8226 leukemia is 4.12 µM; with SF-539 CNS, 4.66 µM; in the experiment on SK-OV-3 ovarian, 9.96 µM; in the experiment on UO-31 renal, 14.4 µM. The TGI is 15.7 µM in the experiment on 786-0 renal; 38.6 µM with A498 renal; more than 52.1 µM with COLO 205 colon; 33.9 µM with NCI-H226 lung; 9.04 µM with NCI-H23 lung; 24.5 µM in the experiment on OVCAR-5 ovarian. Besides, the TGI in the experiment with RPMI-8226 leukemia is more than 100 µM; in the experiment on SF-539 CNS, 15.9 µM; in the experiment with SK-OV-3 ovarian, more than 52.7 µM; in the experiment with UO-31 renal it was 44.9 µM.
For `COC(=O)C1=CO[C@@H](OC2CC(CO)C(O)C(O)C2O)[C@@H]2[C@@H](C)[C@@H](OC(=O)/C=C/c3ccccc3)[C@@H](O)[C@H]12` (stereo not given in full) (tested in a mixture with another compound), the TGI in the experiment with 786-0 renal, in the experiment with A498 renal, in the experiment on COLO 205 colon, in the experiment on NCI-H226 lung, with NCI-H23 lung and in the experiment on OVCAR-5 ovarian was more than 100 µM throughout. Moreover, the TGI with RPMI-8226 leukemia, in the experiment with SF-539 CNS, in the experiment with SK-OV-3 ovarian and in the experiment on UO-31 renal was more than 100 µM throughout.
